The values below come from ChEMBL document CHEMBL3046521, “Synthesis and antitumor activity of (4-hydroxyphenyl)[5-substituted alkyl/aryl)-2-thioxo-1,3,4-thiadiazol-3-yl]methanone and [(3,4-disubstituted)-1,3-thiazol-2ylidene]-4-hydroxybenzohydrazide” (2011).

For this assay, the system named is A498. The assay is described as follows: Cytotoxicity against Homo sapiens (human) A498 cells after 48 hr by sulforhodamine B assay. The note with it: A498, 48 h. The format is functional. (The SRB assay estimates cell density from bound dye.)

With `O=C(c1ccc(O)cc1)n1nc(-c2c(Cl)cccc2Cl)sc1=S`, halving of growth (GI50) required 2.34 µM. In addition, where the note is “read-out: pLC50 (the source's name) (converted)”, the CC50 is 53.7 µM. In addition, the TGI (read-out: pTGI (converted)) is 17 µM.

By GI50 is commonly meant the concentration at which growth is held to half of that of the control. The low end stands for more potent growth inhibition, the high end for less potent growth inhibition.
